These results are taken from patent US20250255876A1, “COMPOSITIONS AND METHODS FOR CANCER TREATMENT” (ARIEL SCIENTIFIC INNOVATIONS LTD., priority 2021, published 2025).

Entries after “also recorded” stand apart in the source; their conditions may differ.

The target of test [1] is MAD2L2 (Homo sapiens, UniProt Q9UI95). In words: Cellular thermal shift assay (CETSA) in 293T cells. The class given is cell-based. The note with it: 50 μM, 1 hour. The procedure:
The in vivo binding of MAD2L2 to the small molecule compounds was detected using the cellular thermal shift assay (CETSA), following their standard protocol. Briefly, 293T cells were grown to confluency and treated for 1 hour with the DMSO or selected compounds at 50 µM. Cells were collected and centrifuged for 3 min at 300 g, washed once with PBS, and each pellet was resuspended in 1 ml of PBS supplemented with Merck® 1000×protease inhibitor (539134). The cell suspensions were aliquoted and incubated for 3 min in the VWR XT96 thermal cycler using a gradient from 40°−55° C. Following heating, the tubes were incubated at room temperature for 3 min and then snap frozen in liquid nitrogen. The samples were then lysed via two subsequent freeze-thaw cycles with vortexing, and the lysates were centrifuged at 20,000 g for 20 min at 4° C. Finally, the cleared lysates were boiled in Laemmli buffer for 5 minutes.
In order to validate that MAD2L2 is a direct target of c #2 and c #3, the inventors tested the compounds' binding kinetics to a recombinant protein by Field Effect Biosensing (FEB) technology. Briefly, purified GST-MAD2L2 was immobilized onto a […] chip, and the current across the chip is measured to determine the baseline current. Then, a soluble compound was flowed over the chip. Interaction of the soluble and immobilized molecules yields a detectable change in conductance of the biosensor. The Kon and Koff of the interaction were measured over time and were used to calculate the KD. The binding of both c #2 and c #3 to MAD2L2 is in the micromolar range: 31.08 μM and 44.88 μM, respectively (FIG. 13A). […] The in vivo binding of c #2 or c #3 to MAD2L2 was validated by using a cellular thermal shift assay (CETSA), which is a reliable reporter showing whether a molecule enters the cell and the nucleus and binds to the protein of interest. Briefly, under normal conditions, most of the MAD2L2 protein unfolds, aggregates and disappears from the soluble fraction of the lysate between 46° C. and 49° C. […]

In test [2] the test system is U2OS cells. In words: Colony survival assay, U2OS cells. The class given is cell-based. The settings on record: varying cisplatin, 48 hours. The procedure: H1975 cells were plated in 24-well plates at 50,000 cells/well (for 50 µM inhibitor treatment) or 20,000 cells/well (for […] inhibitor treatment). U2OS and A549 cells were plated in 24-well plates at 5000 cells/well. The next day, cells were treated with varying concentrations of cisplatin, either with or without added inhibitor compound. After 48 hours of cisplatin+compound treatment, the cells were washed 3 times with PBS×1 and fresh media applied. After 4 days of recovery, the cells were stained with methylene blue and imaged using a Nikon SMZ25 stereomicroscope. The images were analyzed using the ImageJ (National Institutes of Health) area measurement tool to quantify total colony size in each well.

Test [3] concerns γH2AX foci in A549 cells. In words: γH2AX foci immunofluorescence, A549 cells. The class given is cell-based. The settings on record: for cells with more than 80 foci or very bright signal, combined treatment / number of γH2AX foci/cell, combined treatment: A549, 10 μM cisplatin + 50 μM compound; for number of γH2AX foci/cell, combined treatment: overnight. The procedure:
(§1) H1975 and A549 cells were grown on glass coverslips in 12-well plates with the appropriate media, and fixed in 4% paraformaldehyde for 10 minutes at room temperature. Cells were permeabilizedin 0.5% TritonX100 in PBS×1 for 10 minutes at room temperature and then blocked in 5% BSA in 0.1% PBS×1-Tween for 1 hour at room temperature. Anti-phospho-Histone H2A.X primary antibody ([…]; 05-636-25UG) diluted 1:400 in 5% BSA in 0.1% PBS×1-Tween was added for 1 hour at room temperature. Fluorescent-dye conjugated secondary antibody was applied for 1 hour at room temperature. The coverslips were washed between each step with PBS×1. Nuclei were stained with DAPI (1:2000 dilution) at room temperature in the dark for 3 minutes. Coverslips were mounted on glass slides and imaged using an Olympus 1×81 microscope. For all treatments, cells with fewer than 80 foci were scored manually (FIG. 4B), and cells with more than 80 foci and very bright signals were scored automatically by using the “Analyze Particles” function in ImageJ (National Institutes of Health) after setting a suitable threshold.
(§2) Next, the inventors examined whether combined treatment of cisplatin with c #2 or c #3 correlates with an increase in DNA damage, which might explain the compound's sensitization effect. A549 and H1975 cell lines were exposed to combined overnight treatment with cisplatin and c #2 or c #3, and the levels of γH2AX foci were monitored. In both cell lines, a clear increase in the number of foci was observed after combined treatment, compared to cells treated with cisplatin or compounds alone (FIG. 12A).
(§3) Combined treatment of cisplatin with c #3 correlates with an increase in DNA damage. Levels of γ-H2AX foci, a marker for DNA double-strand breaks, were compared in H1975, A549 and B16F10 cell lines.

Test [4] deals with γH2AX foci in H1975 cells. In words: γH2AX foci immunofluorescence, H1975 cells. The format is cell-based, human. The settings on record: for number of γH2AX foci/cell, combined treatment: overnight. The method, then: as §1, §2, §3
Where [5] appears, read: H1975, 5 μM cisplatin + 50 μM compound.

MAD2L2, sequence (Q9UI95 whole entry): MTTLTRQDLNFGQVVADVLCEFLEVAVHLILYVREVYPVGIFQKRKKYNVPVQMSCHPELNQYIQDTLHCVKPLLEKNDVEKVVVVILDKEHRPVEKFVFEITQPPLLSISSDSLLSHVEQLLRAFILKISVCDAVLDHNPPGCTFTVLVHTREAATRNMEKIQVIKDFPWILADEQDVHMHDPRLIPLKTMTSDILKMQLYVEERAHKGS

On to `CNc1nc(N2CCCCC2)nc(-n2cnc(SCC(N)=O)n2)n1` [Compound 2], for which, in test [1], the “stabilization of folded MAD2L2 (in words)” value is given as “stabilize the folded MAD2L2 protein”. The MAD2L2 aggregation temperature entry in test [1] (normal conditions between 46° C. and 49° C.) is “milder change in MAD2L2's aggregation temperature”. Moreover, the “cell survival with cisplatin plus inhibitor” value in test [2] is recorded as “reduction in cell survival”. In test [3], the “cells with more than 80 foci or very bright signal, combined treatment” value is recorded as “significantly more abundant”. Besides, the “number of γH2AX foci/cell, combined treatment” value in test [3] and in test [4] (setting [5]) was “significant increase in the number of γH2AX foci/cell” throughout.

As to `Cc1oc(-c2ccco2)nc1CC(=O)N[C@@H](C(=O)O)c1ccccc1` [Compound 3], in test [1] (listed as c #3), the “stabilization of folded MAD2L2 (in words)” value is reported as “stabilize the folded MAD2L2 protein; also recorded: stronger binding affinity to MAD2L2 than c #2”. Also, the “cell survival with cisplatin plus inhibitor” value in test [2] is given as “reduction in cell survival”. For the same molecule, the “increase in γ-H2AX foci/cell in co-treated cells” value in test [3] (A549, 10 μM cisplatin + 50 μM c #3, 16 h) is given as 2 fold; in test [4] (H1975, 5 μM cisplatin + 50 μM c #3, 16 h), 2 fold. The “cells with more than 80 foci or very bright signal, combined treatment” value in test [3] and in test [4] (setting [5]) was “significantly more abundant” throughout. Besides, the “number of γH2AX foci/cell, combined treatment” value in test [3] and in test [4] (setting [5]) was “significant increase in the number of γH2AX foci/cell” in each case. Also, the “γ-H2AX signal, c #3 alone” value in test [3] (A549, c #3 alone) is given as “no effect on the γ-H2AX signal”; in test [4] (H1975, c #3 alone) it was “no effect on the γ-H2AX signal”.
